Results taken from patent US11220482B2, “Aminopyridinemethanol compounds and their use” (UNIVERSITE AMIENS PICARDIE JULES VERNE, priority 2017, dated 2022).
Where two headings read alike, the source gives them in different places.

How the values were obtained:
CHO-K1 cells [1] = assay: In vitro micronucleus assay, short-term exposure
Protocol: All the assays were conducted in duplicate. The CHO-K1 cells, suspended in McCoy's 5A medium, were transferred into Labteck wells at a concentration of 100,000 cells/mL, and incubated for 24 hours at 37° C. in CO2 (5%).
When the test was performed without metabolic activation, the test substances were added into cell cultures at concentrations previously defined.
When the assay was performed in the presence of metabolic activation, S9 mix metabolizing mixture was added to cell cultures at a concentration of 10%. Then the test substances were added to the cell cultures at concentrations previously defined.
After 3 hours of incubation at 37° C. in CO2 (5%), the culture medium was removed, the cells were rinsed with phosphate buffered saline (PBS), and then returned to culture in McCoy's 5A medium containing […] of cytochalasin B. After a 21-hour incubation period at 37° C., cells were rinsed with phosphate buffered saline (PBS), fixed with methanol and stained with 10% Giemsa for 20 minutes.
(§1) The analysis of results was performed under a microscope at ×1000 magnification. The antiproliferative activity of test substances was estimated by counting the number of binucleated cells relative to the number of mononucleated cells on a total of 500 cells for each dose (250 cells counted per well). The proliferation index (Cytokinesis Blocked Proliferative Index CBPI) was calculated using the following formula:
(§2) The cytostasis index (CI %), i.e. the percentage of cell replication inhibition, was calculated using the following formula: CI %−100−{100×(CBPItest material−1)/(CBPIsolvent control−1)}
(§3) The rates of micronuclei were evaluated for the presence of independent nuclear core entities in 1000 binucleated cells per well, which corresponds to 2000 cells examined by test substance dose. Micronuclei were identified as small nuclei well differentiated from cell nucleus, stained in the same manner and having a diameter less than one third of that of the cell nucleus.
(§4) Micronuclei rates obtained for different doses of test substances were compared to the negative control by a χ2 test. The assay was considered positive if: • A dose-response relationship was obtained between the rate of micronuclei and the doses tested, • At least one of these doses induced a statistically significant increase (P<0.05) in the number of micronucleated cells as compared to the negative control.

CHO-K1 cells [2] = settings: Chinese hamster, 24 h
Protocol: All the assays were conducted in duplicate. The CHO-K1 cells, suspended in Mac Coy's 5A medium, were transferred into Labteck wells at a concentration of 100,000 cells/mL, and incubated for 24 hours at 37° C. in CO2 (5%).
The test was performed without metabolic activation: the test substances were added into cell cultures at concentrations previously defined. […] After 24 hours of incubation at 37° C. in CO2 (5%), the culture medium was removed, the cells were rinsed with phosphate buffered saline (PBS), and then returned in culture medium containing […] of cytochalasine B. After a 24-hour incubation period at 37° C., cells were rinsed with phosphate buffered saline (PBS), fixed with methanol and stained with 10% Giemsa for 20 minutes.
as §1, §2, §3, §4

[3] = test system: Plasmodium falciparum 3D7; assay: Plasmodium falciparum susceptibility assay, first round (SYBR Green I); type: cell-based; settings: 3D7, first round, 48-h incubation, strain susceptible to CQ, decreased susceptibility to MQ, read-out: IC50 (nM) Plasmodium falciparum 3D7 (converted)
Salmonella strains = assay: Bacterial reverse mutation assay (Ames test), overall conclusion; type: cell-based, S. typhimurium; settings: all tested doses, absence or presence of the metabolizing mixture
Protocol: Five strains of S. typhimurium were used. […] An additional strain has been chosen to detect cross-linking mutagens, hydrazines and oxidative agents: TA102, which have an AT base pair at the primary reversion site. Salmonella tester strains were gifts from Prof. B. N. Ames (Berkeley, Calif., USA). They were stored at −80° C. and regularly checked for genetic markers.
Few crystals of the frozen working strains were taken with a sterile pipette, and seeded in 10 mL of nutrient broth (NB No 2, Oxoid). Strains were grown overnight at 37° C. with shaking in Nutrient Broth No. 2, with ampicillin (25 μg/mL) for TA1535, TA97a, TA98, and TA 100, or ampicillin (25 μg/mL) plus tetracyclin (2 μg/mL) for TA 102. At the end of the incubation period, 0.1 mL of each overnight culture was mixed to 0.1 mL S9 Mix or 0.1 mL phosphate-buffered saline (PBS, pH 7.4) in 5 mL plastic tubes and various volumes of the tested samples were added to the mixtures. Each experiment included triplicate plates of four tested doses. A solvent (DMSO, 10 μL) control was added to determine the spontaneous frequency of revertants (quadruple plates). Five positive controls were also included to ensure the performance of the tester strains and the S9 Mix. […] After hardening, the plates were incubated at 37° C. for 48 hours.
At the end of the incubation period, revertants were counted with a laser colony counter equipped with a bacterial enumeration program (Spiral System Instrument Inc., Bethesda, Md., USA).
The Dunnett test was performed to determine a significant difference between the mean number of induced revertants and the mean number of spontaneous revertants.

Plasmodium falciparum W2 = assay: Plasmodium falciparum susceptibility assay, first round (SYBR Green I); type: cell-based; settings: W2, first round, 48-h incubation, strain resistant to CQ, sensitive to MQ, read-out: IC50 (nM) Plasmodium falciparum W2 (converted)
S. typhimurium TA98 = assay: Bacterial reverse mutation assay (Ames test)

What does the source list for `CCCCCNC[C@@H](O)c1ccc(-c2ccc(C(F)(F)F)cc2)nc1C(F)(F)F` [Compound 30c, (S)-2-(Pentylamino)-1-(2-(trifluoromethyl)-6-(4-(trifluoromethyl)phenyl)pyridin-3-yl)ethanol]?
Number of revertants by plate (Means ± SD), TA97a (S. typhimurium TA97a; with S9 mix, 0.4 μg/plate): 128 ± 10^NS; Number of revertants by plate (Means ± SD), TA97a (S. typhimurium TA97a; with S9 mix, 0.6 μg/plate): 134 ± 8^NS; Number of revertants by plate (Means ± SD), TA97a (S. typhimurium TA97a; with S9 mix, 0.8 μg/plate): 137 ± 11^NS; Number of revertants by plate (Means ± SD), TA97a (S. typhimurium TA97a; with S9 mix, 1 μg/plate): 125 ± 8^NS; Number of revertants by plate (Means ± SD), TA97a (S. typhimurium TA97a; without S9 mix, 0.4 μg/plate): 148 ± 8^NS; Number of revertants by plate (Means ± SD), TA97a (S. typhimurium TA97a; without S9 mix, 0.6 μg/plate): 155 ± 6^NS; Number of revertants by plate (Means ± SD), TA97a (S. typhimurium TA97a; without S9 mix, 0.8 μg/plate): 159 ± 8^NS; Number of revertants by plate (Means ± SD), TA97a (S. typhimurium TA97a; without S9 mix, 1 μg/plate): 138 ± 8^NS; in vitro micronucleus assay result (clastogenic and/or aneugenic activities) (CHO-K1 cells [1]): negative results; BI (binucleated cells) (CHO-K1 cells [2]; 5 μM): 432; CBPI (Cytokinesis-Blocked Proliferative Index) (CHO-K1 cells [2]; 5 μM): 1.86; CI % (cytostasis index) (CHO-K1 cells [2]; 5 μM): 5%; MNC1 (micronucleated cell rate) (CHO-K1 cells [2]; 5 μM): 8 ‰; MNC2 (micronucleated cell rate) (CHO-K1 cells [2]; 5 μM): 12 ‰; MNC-M (mean of micronucleated cell rates) (CHO-K1 cells [2]; 5 μM): 10 ± 2.8 ‰; MONO (mononucleated cells) (CHO-K1 cells [2]; 5 μM): 68; BI (binucleated cells) (CHO-K1 cells [2]; 10 μM): 331; CBPI (Cytokinesis-Blocked Proliferative Index) (CHO-K1 cells [2]; 10 μM): 1.66; CI % (cytostasis index) (CHO-K1 cells [2]; 10 μM): 27%; MNC1 (micronucleated cell rate) (CHO-K1 cells [2]; 10 μM): 9 ‰; MNC2 (micronucleated cell rate) (CHO-K1 cells [2]; 10 μM): 11 ‰; MNC-M (mean of micronucleated cell rates) (CHO-K1 cells [2]; 10 μM): 10 ± 1.4 ‰; MONO (mononucleated cells) (CHO-K1 cells [2]; 10 μM): 169; BI (binucleated cells) (CHO-K1 cells [2]; 50 μM): 218; CBPI (Cytokinesis-Blocked Proliferative Index) (CHO-K1 cells [2]; 50 μM): 1.42; CI % (cytostasis index) (CHO-K1 cells [2]; 50 μM): 52%; MNC1 (micronucleated cell rate) (CHO-K1 cells [2]; 50 μM): 10 ‰; MNC2 (micronucleated cell rate) (CHO-K1 cells [2]; 50 μM): 12 ‰; MNC-M (mean of micronucleated cell rates) (CHO-K1 cells [2]; 50 μM): 11 ± 1.4 ‰; MONO (mononucleated cells) (CHO-K1 cells [2]; 50 μM): 282; IC50 [3]: 232 ± 17 nM; Number of revertants by plate (Means ± SD), TA1535 (S. typhimurium TA1535; with S9 mix, 0.4 μg/plate): 22 ± 5^NS; Number of revertants by plate (Means ± SD), TA1535 (S. typhimurium TA1535; with S9 mix, 0.6 μg/plate): 26 ± 6^NS; Number of revertants by plate (Means ± SD), TA1535 (S. typhimurium TA1535; with S9 mix, 0.8 μg/plate): 25 ± 8^NS; Number of revertants by plate (Means ± SD), TA1535 (S. typhimurium TA1535; with S9 mix, 1 μg/plate): 26 ± 7^NS; Number of revertants by plate (Means ± SD), TA1535 (S. typhimurium TA1535; without S9 mix, 0.4 μg/plate): 26 ± 3^NS; Number of revertants by plate (Means ± SD), TA1535 (S. typhimurium TA1535; without S9 mix, 0.6 μg/plate): 25 ± 4^NS; Number of revertants by plate (Means ± SD), TA1535 (S. typhimurium TA1535; without S9 mix, 0.8 μg/plate): 28 ± 8^NS; Number of revertants by plate (Means ± SD), TA1535 (S. typhimurium TA1535; without S9 mix, 1 μg/plate): 25 ± 6^NS; mutagenic activity in Salmonella strains (revertant rates) (Salmonella strains): No significant increase in revertant rates; IC50 (Plasmodium falciparum W2): 24.4 nM; Number of revertants by plate (Means ± SD), TA98 (S. typhimurium TA98; with S9 mix, 0.4 μg/plate): 34 ± 6^NS; Number of revertants by plate (Means ± SD), TA98 (S. typhimurium TA98; with S9 mix, 0.6 μg/plate): 38 ± 5^NS; Number of revertants by plate (Means ± SD), TA98 (S. typhimurium TA98; with S9 mix, 0.8 μg/plate): 28 ± 4^NS; Number of revertants by plate (Means ± SD), TA98 (S. typhimurium TA98; with S9 mix, 1 μg/plate): 26 ± 6^NS; Number of revertants by plate (Means ± SD), TA98 (S. typhimurium TA98; without S9 mix, 0.4 μg/plate): 35 ± 3^NS; Number of revertants by plate (Means ± SD), TA98 (S. typhimurium TA98; without S9 mix, 0.6 μg/plate): 33 ± 2^NS; Number of revertants by plate (Means ± SD), TA98 (S. typhimurium TA98; without S9 mix, 0.8 μg/plate): 34 ± 5^NS; Number of revertants by plate (Means ± SD), TA98 (S. typhimurium TA98; without S9 mix, 1 μg/plate): 32 ± 6^NS; Number of revertants by plate (Means ± SD), TA100 (S. typhimurium TA100; with S9 mix, 0.4 μg/plate): 202 ± 8^NS; Number of revertants by plate (Means ± SD), TA100 (S. typhimurium TA100; with S9 mix, 0.6 μg/plate): 183 ± 12^NS; Number of revertants by plate (Means ± SD), TA100 (S. typhimurium TA100; with S9 mix, 0.8 μg/plate): 178 ± 11^NS; Number of revertants by plate (Means ± SD), TA100 (S. typhimurium TA100; with S9 mix, 1 μg/plate): 168 ± 12^NS; Number of revertants by plate (Means ± SD), TA100 (S. typhimurium TA100; without S9 mix, 0.4 μg/plate): 197 ± 6^NS; Number of revertants by plate (Means ± SD), TA100 (S. typhimurium TA100; without S9 mix, 0.6 μg/plate): 201 ± 9^NS; Number of revertants by plate (Means ± SD), TA100 (S. typhimurium TA100; without S9 mix, 0.8 μg/plate): 211 ± 12^NS; Number of revertants by plate (Means ± SD), TA100 (S. typhimurium TA100; without S9 mix, 1 μg/plate): 206 ± 14^NS; Number of revertants by plate (Means ± SD), TA102 (S. typhimurium TA102; with S9 mix, 0.4 μg/plate): 346 ± 8^NS; Number of revertants by plate (Means ± SD), TA102 (S. typhimurium TA102; with S9 mix, 0.6 μg/plate): 349 ± 12^NS; Number of revertants by plate (Means ± SD), TA102 (S. typhimurium TA102; with S9 mix, 0.8 μg/plate): 368 ± 11^NS; Number of revertants by plate (Means ± SD), TA102 (S. typhimurium TA102; with S9 mix, 1 μg/plate): 359 ± 6^NS; Number of revertants by plate (Means ± SD), TA102 (S. typhimurium TA102; without S9 mix, 0.4 μg/plate): 298 ± 21^NS; Number of revertants by plate (Means ± SD), TA102 (S. typhimurium TA102; without S9 mix, 0.6 μg/plate): 319 ± 14^NS; Number of revertants by plate (Means ± SD), TA102 (S. typhimurium TA102; without S9 mix, 0.8 μg/plate): 331 ± 17^NS; Number of revertants by plate (Means ± SD), TA102 (S. typhimurium TA102; without S9 mix, 1 μg/plate): 339 ± 12^NS
